Source: ChEMBL document CHEMBL1147888, “Convenient one pot synthesis and antimicrobial evaluation of some new Mannich bases carrying 4-methylthiobenzyl moiety” (2007)
≈ marks a conversion by molar mass, not a printed value.

Tests used:
Type in all cases: functional
Klebsiella pneumoniae [1] = test: Antibacterial activity against Klebsiella pneumoniae after 24 hrs by disc diffusion method
Klebsiella pneumoniae [2] = test: Antibacterial activity against Klebsiella pneumoniae after 24 hrs at 10 ug/ml by disc diffusion method; settings: read-out: IZ
Aspergillus fumigatus [3] = test: Antifungal activity against Aspergillus fumigatus NICM902 at 10 ug/ml after 3 to 4 days by serial dilution method; settings: read-out: IZ
Escherichia coli [4] = test: Antibacterial activity against Escherichia coli ATCC 25922 after 24 hrs at 10 ug/ml by disc diffusion method; settings: ATCC 25922, 24 h, read-out: IZ
Staphylococcus aureus [5] = test: Antibacterial activity against Staphylococcus aureus ATCC 25923 at 10 ug/ml after 24 hrs by disc diffusion method; settings: ATCC 25923, 24 h, read-out: IZ
Staphylococcus aureus [6] = test: Antibacterial activity against Staphylococcus aureus ATCC 25923 after 24 hrs by disc diffusion method; settings: ATCC 25923, 24 h
Aspergillus fumigatus [7] = test: Antifungal activity against Aspergillus fumigatus NICM902 after 3 to 4 days by serial dilution method
Talaromyces marneffei [8] = test: Antifungal activity against Penicillium marneffei after 3 to 4 days by serial dilution method
Aspergillus flavus [9] = test: Antifungal activity against Aspergillus flavus NICM524 after 3 to 4 days by serial dilution method
Candida albicans [10] = test: Antifungal activity against Candida albicans NICM3100 at 10 ug/ml after 3 to 4 days by serial dilution method; settings: read-out: IZ
Talaromyces marneffei [11] = test: Antifungal activity against Penicillium marneffei at 10 ug/ml after 3 to 4 days by serial dilution method; settings: read-out: IZ
Pseudomonas aeruginosa [12] = test: Antibacterial activity against Pseudomonas aeruginosa ATCC 27853 after 24 hrs by disc diffusion method; settings: ATCC 27853, 24 h
Escherichia coli [13] = test: Antibacterial activity against Escherichia coli ATCC 25922 after 24 hrs by disc diffusion method; settings: ATCC 25922, 24 h
Candida albicans [14] = test: Antifungal activity against Candida albicans NICM3100 after 3 to 4 days by serial dilution method
Pseudomonas aeruginosa [15] = test: Antibacterial activity against Pseudomonas aeruginosa ATCC 27853 at 10 ug/ml after 24 hrs by disc diffusion method; settings: ATCC 27853, 24 h, read-out: IZ
Aspergillus flavus [16] = test: Antifungal activity against Aspergillus flavus NICM524 at 10 ug/ml after 3 to 4 days by serial dilution method; settings: read-out: IZ

SMILES	MIC (Klebsiella pneumoniae [1]) [µg/mL]	zone of inhibition at 10 µg/mL (Klebsiella pneumoniae [2]) [mm]	zone of inhibition at 10 µg/mL (Aspergillus fumigatus [3]) [mm]	zone of inhibition at 10 µg/mL (Escherichia coli [4]) [mm]	zone of inhibition at 10 µg/mL (Staphylococcus aureus [5]) [mm]	MIC (Staphylococcus aureus [6]) [µg/mL]	MIC (Aspergillus fumigatus [7]) [µg/mL]	MIC (Talaromyces marneffei [8]) [µg/mL]	MIC (Aspergillus flavus [9]) [µg/mL]	zone of inhibition at 10 µg/mL (Candida albicans [10]) [mm]	zone of inhibition at 10 µg/mL (Talaromyces marneffei [11]) [mm]	MIC (Pseudomonas aeruginosa [12]) [µg/mL]	MIC (Escherichia coli [13]) [µg/mL]	MIC (Candida albicans [14]) [µg/mL]	zone of inhibition at 10 µg/mL (Pseudomonas aeruginosa [15]) [mm]	zone of inhibition at 10 µg/mL (Aspergillus flavus [16]) [mm]
CSc1ccc(Cc2nn(CN3CCOCC3)c(=S)n2/N=C/c2ccc3c(c2)OCO3)cc1	12.5 (≈ 25.8 µM)	10	12	10	10	25 (≈ 51.7 µM)	12.5 (≈ 25.8 µM)	12.5 (≈ 25.8 µM)	25 (≈ 51.7 µM)	10	10	12.5 (≈ 25.8 µM)	25 (≈ 51.7 µM)	12.5 (≈ 25.8 µM)	12	10
CSc1ccc(Cc2nn(CN3CCN(C)CC3)c(=S)n2/N=C/c2ccc(F)cc2)cc1	12.5 (≈ 26.6 µM)	10	12	12	12	25 (≈ 53.1 µM)	12.5 (≈ 26.6 µM)	12.5 (≈ 26.6 µM)	25 (≈ 53.1 µM)	10	10	12.5 (≈ 26.6 µM)	25 (≈ 53.1 µM)	12.5 (≈ 26.6 µM)	10	10
CSc1ccc(Cc2nn(CN3CCN(C)CC3)c(=S)n2/N=C/c2ccc(Cl)cc2Cl)cc1	6 (≈ 11.5 µM)	20	22	18	19	12.5 (≈ 24 µM)	6 (≈ 11.5 µM)	6 (≈ 11.5 µM)	12.5 (≈ 24 µM)	20	18	6 (≈ 11.5 µM)	12.5 (≈ 24 µM)	6 (≈ 11.5 µM)	25	18
CSc1ccc(Cc2nn(CN3CCN(C)CC3)c(=S)n2/N=C/c2ccc(C)cc2)cc1	12.5 (≈ 26.8 µM)	10	10	12	10	25 (≈ 53.6 µM)	12.5 (≈ 26.8 µM)	12.5 (≈ 26.8 µM)	25 (≈ 53.6 µM)	12	11	12.5 (≈ 26.8 µM)	25 (≈ 53.6 µM)	12.5 (≈ 26.8 µM)	12	12
COc1ccc(/C=N/n2c(Cc3ccc(SC)cc3)nn(CN3CCOCC3)c2=S)cc1	12.5 (≈ 26.6 µM)	10	12	10	12	25 (≈ 53.2 µM)	12.5 (≈ 26.6 µM)	12.5 (≈ 26.6 µM)	25 (≈ 53.2 µM)	10	12	12.5 (≈ 26.6 µM)	25 (≈ 53.2 µM)	12.5 (≈ 26.6 µM)	12	12
CSc1ccc(Cc2nn(CN3CCN(C)CC3)c(=S)n2/N=C/c2ccc(Cl)cc2)cc1	6 (≈ 12.3 µM)	20	20	18	18	12.5 (≈ 25.7 µM)	6 (≈ 12.3 µM)	6 (≈ 12.3 µM)	12.5 (≈ 25.7 µM)	19	20	6 (≈ 12.3 µM)	12.5 (≈ 25.7 µM)	6 (≈ 12.3 µM)	24	18
CSc1ccc(Cc2nn(CN3CCOCC3)c(=S)n2/N=C/c2ccc(C)cc2)cc1	12.5 (≈ 27.6 µM)	10	10	10	10	25 (≈ 55.1 µM)	12.5 (≈ 27.6 µM)	12.5 (≈ 27.6 µM)	25 (≈ 55.1 µM)	12	10	12.5 (≈ 27.6 µM)	25 (≈ 55.1 µM)	12.5 (≈ 27.6 µM)	12	12
CSc1ccc(/C=N/n2c(Cc3ccc(SC)cc3)nn(CN3CCOCC3)c2=S)cc1	12.5 (≈ 25.7 µM)	12	12	12	10	25 (≈ 51.5 µM)	12.5 (≈ 25.7 µM)	12.5 (≈ 25.7 µM)	25 (≈ 51.5 µM)	10	12	12.5 (≈ 25.7 µM)	25 (≈ 51.5 µM)	12.5 (≈ 25.7 µM)	12	10
COc1ccc(/C=N/n2c(Cc3ccc(SC)cc3)nn(CN3CCN(C)CC3)c2=S)cc1	12.5 (≈ 25.9 µM)	10	12	10	10	25 (≈ 51.8 µM)	12.5 (≈ 25.9 µM)	12.5 (≈ 25.9 µM)	25 (≈ 51.8 µM)	10	10	12.5 (≈ 25.9 µM)	25 (≈ 51.8 µM)	12.5 (≈ 25.9 µM)	10	12
CSc1ccc(Cc2nn(CN3CCN(C)CC3)c(=S)n2/N=C/c2ccc3c(c2)OCO3)cc1	12.5 (≈ 25.2 µM)	10	10	12	10	25 (≈ 50.3 µM)	12.5 (≈ 25.2 µM)	12.5 (≈ 25.2 µM)	25 (≈ 50.3 µM)	10	10	12.5 (≈ 25.2 µM)	25 (≈ 50.3 µM)	12.5 (≈ 25.2 µM)	12	10
O=C(O)c1cn(C2CC2)c2cc(N3CCNCC3)c(F)cc2c1=O [CIPROFLOXACIN]	6 (≈ 18.1 µM)	20	22	18	19	12.5 (≈ 37.7 µM)				20	20	6 (≈ 18.1 µM)	12.5 (≈ 37.7 µM)		25	18
CSc1ccc(/C=N/n2c(Cc3ccc(SC)cc3)nn(CN3CCN(C)CC3)c2=S)cc1	12.5 (≈ 25.1 µM)	10	12	10	12	25 (≈ 50.1 µM)	12.5 (≈ 25.1 µM)	12.5 (≈ 25.1 µM)	25 (≈ 50.1 µM)	10	12	12.5 (≈ 25.1 µM)	25 (≈ 50.1 µM)	12.5 (≈ 25.1 µM)	12	12
CSc1ccc(Cc2nn(CN3CCOCC3)c(=S)n2/N=C/c2ccc(F)cc2)cc1	12.5 (≈ 27.3 µM)	12	10	12	12	25 (≈ 54.6 µM)	12.5 (≈ 27.3 µM)	12.5 (≈ 27.3 µM)	25 (≈ 54.6 µM)	10	12	12.5 (≈ 27.3 µM)	25 (≈ 54.6 µM)	12.5 (≈ 27.3 µM)	12	10
CSc1ccc(Cc2nn(CN3CCOCC3)c(=S)n2/N=C/c2ccc(Cl)cc2)cc1	12.5 (≈ 26.4 µM)	10	10	10	10	25 (≈ 52.7 µM)	12.5 (≈ 26.4 µM)	12.5 (≈ 26.4 µM)	25 (≈ 52.7 µM)	10	10	12.5 (≈ 26.4 µM)	25 (≈ 52.7 µM)	12.5 (≈ 26.4 µM)	12	10
Cc1cc(C2CCCCC2)n(O)c(=O)c1.NCCO [CICLOPIROX OLAMINE]			22				6	6	12.5	20	20			6		18
CSc1ccc(Cc2nn(CN3CCOCC3)c(=S)n2/N=C/c2ccc(Cl)cc2Cl)cc1	6 (≈ 11.8 µM)	18	12	17	18	12.5 (≈ 24.6 µM)	12.5 (≈ 24.6 µM)	12.5 (≈ 24.6 µM)	25 (≈ 49.2 µM)	10	10	6 (≈ 11.8 µM)	12.5 (≈ 24.6 µM)	12.5 (≈ 24.6 µM)	23	10
